{
  "source": "the supplement of paper PMC10307832",
  "assay_in_all_cases": "relative viability (nuclei count vs DMSO), 5 days (fraction); higher = more cells survive",
  "key": {"[1]": {"tested_on": "NCI-H322M", "procedure,_shortened": "(§1)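 Relative viability is defined as nuclei in treated wells over nuclei in vehicle wells. Duplicate plates were run and medians reported. Lung cancer cell lines in 1536-well plates were dosed by pin tool one day after seeding, with one drug or with a fixed anchor-drug dose plus five library-drug doses (not always all listed) in √10 steps, and nuclei were counted after 5 days.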"}, "[2]": {"tested_on": "NCI-H460", "procedure,_shortened": "as §1"}, "[3]": {"tested_on": "NCI-H2087", "procedure,_shortened": "as §1"}, "[4]": {"tested_on": "EKVX", "procedure,_shortened": "as §1"}, "[5]": {"tested_on": "NCI-H2009", "procedure,_shortened": "as §1"}, "[6]": {"tested_on": "NCI-H1993", "procedure,_shortened": "as §1"}, "[7]": {"tested_on": "SK-MES-1", "procedure,_shortened": "as §1"}, "[8]": {"tested_on": "CAL-12T", "procedure,_shortened": "as §1"}, "[9]": {"tested_on": "EPLC-272H", "procedure,_shortened": "as §1"}, "[10]": {"tested_on": "NCI-H2342", "procedure,_shortened": "as §1"}},
  "data": [
    {"smiles": "Cc1cn(-c2cc(NC(=O)c3ccc(C)c(Nc4nccc(-c5cccnc5)n4)c3)cc(C(F)(F)F)c2)cn1", "note": "[Nilotinib] + CCNC(=O)c1noc(-c2cc(C(C)C)c(O)cc2O)c1-c1ccc(CN2CCOCC2)cc1 [Luminespib] (partner 0.01 µM)", "values": [
      {"measurement": "relative viability", "setting": "[1]; first compound 0.001 µM", "value": 1.08},
      {"measurement": "relative viability", "setting": "[1]; first compound 0.003162 µM", "value": 0.481},
      {"measurement": "relative viability", "setting": "[1]; first compound 0.01 µM", "value": 1.08},
      {"measurement": "relative viability", "setting": "[1]; first compound 0.03162 µM", "value": 0.797},
      {"measurement": "relative viability", "setting": "[1]; first compound 0.1 µM", "value": 1.02},
      {"measurement": "relative viability", "setting": "[2]; first compound 0.001 µM", "value": 0.0351},
      {"measurement": "relative viability", "setting": "[2]; first compound 0.003162 µM", "value": 0.0386},
      {"measurement": "relative viability", "setting": "[2]; first compound 0.01 µM", "value": 0.0279},
      {"measurement": "relative viability", "setting": "[2]; first compound 0.03162 µM", "value": 0.0273},
      {"measurement": "relative viability", "setting": "[2]; first compound 0.1 µM", "value": 0.0271},
      {"measurement": "relative viability", "setting": "[3]; first compound 0.001 µM", "value": 0.162},
      {"measurement": "relative viability", "setting": "[3]; first compound 0.003162 µM", "value": 0.219},
      {"measurement": "relative viability", "setting": "[3]; first compound 0.01 µM", "value": 0.202},
      {"measurement": "relative viability", "setting": "[3]; first compound 0.03162 µM", "value": 0.172},
      {"measurement": "relative viability", "setting": "[3]; first compound 0.1 µM", "value": 0.164},
      {"measurement": "relative viability", "setting": "[4]; first compound 0.001 µM", "value": 0.839},
      {"measurement": "relative viability", "setting": "[4]; first compound 0.003162 µM", "value": 0.959},
      {"measurement": "relative viability", "setting": "[4]; first compound 0.01 µM", "value": 1.09},
      {"measurement": "relative viability", "setting": "[4]; first compound 0.03162 µM", "value": 0.88},
      {"measurement": "relative viability", "setting": "[4]; first compound 0.1 µM", "value": 0.955},
      {"measurement": "relative viability", "setting": "[5]; first compound 0.001 µM", "value": 0.886},
      {"measurement": "relative viability", "setting": "[5]; first compound 0.003162 µM", "value": 1.14},
      {"measurement": "relative viability", "setting": "[5]; first compound 0.01 µM", "value": 1.16},
      {"measurement": "relative viability", "setting": "[5]; first compound 0.03162 µM", "value": 0.955},
      {"measurement": "relative viability", "setting": "[5]; first compound 0.1 µM", "value": 1.12},
      {"measurement": "relative viability", "setting": "[6]; first compound 0.001 µM", "value": 0.928},
      {"measurement": "relative viability", "setting": "[6]; first compound 0.003162 µM", "value": 0.456},
      {"measurement": "relative viability", "setting": "[6]; first compound 0.01 µM", "value": 0.912},
      {"measurement": "relative viability", "setting": "[6]; first compound 0.03162 µM", "value": 0.773},
      {"measurement": "relative viability", "setting": "[6]; first compound 0.1 µM", "value": 0.765},
      {"measurement": "relative viability", "setting": "[7]; first compound 0.001 µM", "value": 0.784},
      {"measurement": "relative viability", "setting": "[7]; first compound 0.003162 µM", "value": 0.985},
      {"measurement": "relative viability", "setting": "[7]; first compound 0.01 µM", "value": 0.927},
      {"measurement": "relative viability", "setting": "[7]; first compound 0.03162 µM", "value": 0.672},
      {"measurement": "relative viability", "setting": "[7]; first compound 0.1 µM", "value": 0.626},
      {"measurement": "relative viability", "setting": "[8]; first compound 0.001 µM", "value": 0.66},
      {"measurement": "relative viability", "setting": "[8]; first compound 0.003162 µM", "value": 0.335},
      {"measurement": "relative viability", "setting": "[8]; first compound 0.01 µM", "value": 0.665},
      {"measurement": "relative viability", "setting": "[8]; first compound 0.03162 µM", "value": 0.222},
      {"measurement": "relative viability", "setting": "[8]; first compound 0.1 µM", "value": 0.212},
      {"measurement": "relative viability", "setting": "[9]; first compound 0.001 µM", "value": 0.134},
      {"measurement": "relative viability", "setting": "[9]; first compound 0.003162 µM", "value": 0.205},
      {"measurement": "relative viability", "setting": "[9]; first compound 0.01 µM", "value": 0.277},
      {"measurement": "relative viability", "setting": "[9]; first compound 0.03162 µM", "value": 0.265},
      {"measurement": "relative viability", "setting": "[9]; first compound 0.1 µM", "value": 0.175},
      {"measurement": "relative viability", "setting": "[10]; first compound 0.001 µM", "value": 0.595},
      {"measurement": "relative viability", "setting": "[10]; first compound 0.003162 µM", "value": 0.675},
      {"measurement": "relative viability", "setting": "[10]; first compound 0.01 µM", "value": 0.698},
      {"measurement": "relative viability", "setting": "[10]; first compound 0.03162 µM", "value": 0.586},
      {"measurement": "relative viability", "setting": "[10]; first compound 0.1 µM", "value": 0.673}
    ]}
  ]
}
